Measured values published in PMC9370166, “In Vitro and In Vivo Antibacterial Activity, Toxicity and Resistance Analysis of Pleuromutilin Derivative Z33 against Methicillin-Resistant Staphylococcus aureus” (Molecules, 2022).
pIC50: −log10 of the molar value. In brackets after ≈: the same amount, converted by molar mass. Read-outs that look alike come from different tables or passages of the source.

Key:
CYP3A4 = target: T1, CYP3A4 (Homo sapiens, UniProt P08684); assay: CYP450 inhibition assay, human liver microsomes, testosterone probe; assay type: in vitro ADME
T1 construct: 40 µL of the human liver microsomal enzyme (final concentration is 0.5 g/L); tissue Research Institute for Liver Diseases Co., Ltd. (Shanghai, China); host or cells: human liver microsomes
Method: (§1) The inhibition effect of Z33 and tiamulin on the human liver microsomal enzyme was determined as described in the literature with some modifications. Experiments were performed in 96-well plates with a final incubation volume of 100 μL per well. 40 µL of the human liver microsomal enzyme (final concentration is 0.5 g/L), 20 µL of probe substrate (final concentration of testosterone and chlorzoxazone is 20 µmol/L), and 20 µL of test drug were mixed in each well. After preincubation at 37 °C for 5 min, the reactions were started by the addition of 20 μL of NADPH (final concentration is 1 mmol/L). Depending on the substrate, the chlorzoxazone and testosterone groups were incubated at 37 °C for 25 min and 10 min, respectively. The reaction was terminated by adding 100 µL of acetonitrile, and then the supernatant was centrifuged to analyse by LC-MS/MS.

MRSA ATCC 43300 [1] = assay: Time-kill kinetics assay; assay type: cell-based, Staphylococcus aureus; conditions: 8 × MIC; over 24 h of exposure
Method: The time–kill kinetics curve of Z33 was determined according to previous reports. MRSA ATCC 43300 strains were grown in Mueller–Hinton Broth (MHB) at the starting inoculum of 10^6 CFU/mL. […] MHB without antibiotics was used as a control. At various time points (0, 3, 6, 9, and 24 h), 100 µL of samples were diluted with 0.9% saline and plated on MHA medium. CFU were recorded after 24 h of incubation at 37 °C.

CYP2E1 = target: T2, CYP2E1 (Homo sapiens, UniProt P05181); assay: CYP450 inhibition assay, human liver microsomes, chlorzoxazone probe; assay type: in vitro ADME; conditions: for pIC50: human liver microsomes
T2 construct: 40 µL of the human liver microsomal enzyme (final concentration is 0.5 g/L); tissue Research Institute for Liver Diseases Co., Ltd. (Shanghai, China); host or cells: human liver microsomes
Method: as §1

MRSA ATCC 43300 [2] = assay: Neutropenic mouse thigh infection model; assay type: in vivo, mice
Method: The neutropenic mouse thigh infection model was used to determine the in vivo antibacterial activity of Z33 [23]. Briefly, female mice were rendered neutropenic (neutrophil count ≤ 100/mm^3) via intraperitoneal injection of cyclophosphamide on day 4 (150 mg/kg) and day 1 (100 mg/kg) before infection. MRSA ATCC 43300 cells were collected in the logarithmic phase and resuspended in 0.9% saline. The thigh infection model was established by injection of 100 μL of MRSA suspension (10^7 CFU/mL) into the posterior thighs of mice. After 2 h post-infection, mice were intravenously injected with tiamulin and Z33 at a dose of 20 mg/kg, and the untreated groups were administrated with an equal amount of saline. Mice were euthanized after treatment of 22 h, thigh tissue was aseptically collected, weighed, homogenized, and serially diluted in saline, respectively. CFU counts were determined by the flat colony counting method.

[3] = Cytotoxicity test (MTT assay); assay type: cell-based; conditions: mouse, RAW264.7 macrophages, RAW264.7, MTT, tested up to 20 μg/mL
Method: (§2) To assess the effects of tiamulin and Z33 on the viability of RAW264.7 macrophages, the MTT assay was performed according to previous reports. […] After discarding the MTT solution, DMSO (150 μL) was added to each well to dissolve all crystals. OD490nm was recorded using EnSight Multimode Plate Reader (PerkinElmer, […], USA).

RAW264.7 cells = assay: Cytotoxicity test (MTT assay); assay type: cell-based; conditions: concentrations less than 5 μg/mL, 24 h, MTT
Method: as §2

four S. aureus strains [4] = assay: MIC and MBC, summary over four strains; assay type: cell-based; conditions: Staphylococcus aureus; range over four strains; read-out: MIC values against four S. aureus strains
Method: (§3) The MIC values of Z33 against MRSA ATCC 43300 and S. aureus clinical isolates were measured according to the broth microdilution guidelines provided by the Clinical and Laboratory Standards Institute (CLSI). S. aureus ATCC 29213 was used as the quality control strain, and the quality control range was referred to the CLSI. The MIC value is defined as the lowest concentration of the compounds with no visible growth of bacteria. The MIC assay was independently repeated three times.
(§4) The MBC values of antibacterial agents were measured after incubation at 37 °C for 24 h. Briefly, 100 µL of bacterial solution from the three wells behind the corresponding well of MIC was absorbed and spread on the Mueller–Hinton Agar (MHA). The MBC refers to the lowest concentration corresponding to the amount of colony-forming unit (CFU) ≤ 5 on the medium after 18~24 h of incubation at 37 °C.

MRSA ATCC 43300 [5] = assay: Post-antibiotic effect assay; assay type: cell-based, Staphylococcus aureus
Method: The PAE was measured using the method described by Jin et al.. MRSA ATCC 43300 cells were collected in the logarithmic phase and resuspended in MHB. The bacterial suspension (10^6 CFU/mL) was inoculated in MHB containing Z33 (final concentration is 2 × or 4 × MIC) and incubated for 1 or 2 h at 37 °C with shaking (210 rpm). The group without the drug served as a control. After treatment with various concentrations of Z33, samples were subjected to one-thousand-fold dilution with MHB to remove the drug and incubated at 37 °C. In total, 100 µL of the samples was serially diluted in 0.9% saline and plated onto MHA at various time points (0, 1, 2, 4, 8 h). MHA plates were incubated at 37 °C for 18~24 h to calculate CFU. The growth kinetic curves of MRSA treated with different drug concentrations were established by plotting log10 CFU/mL of bacterial counts versus time. PAE was presented in hours and calculated according to the following equation: PAE = TA − TC, where TA and TC are the time required for MRSA to rise by 1 log10 CFU/mL after drug removal in the treated and untreated cultures, respectively.

four S. aureus strains [6] = assay: microbe, parasite or virus in culture; assay type: cell-based, Staphylococcus aureus
Method: To assess the propensity for the development of bacterial resistance, the ability of Z33 and tiamulin to induce resistance to four strains were tested, respectively. Serial passages at 37 °C were performed daily in BHI broth containing sub-MIC concentration (1/4 MIC) of Z33 and tiamulin. The MIC values were daily determined and recorded by the broth microdilution method. A duration of 13 passages was performed in every case.

[7] = Acute oral toxicity in mice; conditions: both sexes, ICR, mouse, in vivo, 5 g/kg; acute oral toxicity, mice
Method: (§5) The acute toxicity of Z33 was performed in mice according to previous works with some modifications. The ICR mice were randomly divided into two groups (10 animals in each group, half male and half female) after 12 h of fasting. Z33 was prepared with 0.5% CMC-Na sodium as a suspension at a concentration of 5 g/kg. Mice in the test group were administered with Z33 suspension by oral administration route, and the control group received an equal dose of 0.5% CMC-Na. All the mice were observed critically once a day for 14 days. The test was repeated twice.

ICR mice = assay: Acute oral toxicity in mice; conditions: mouse, in vivo, po, 5000 mg/kg
Method: as §5

[8] = test system: S. aureus clinical strain 144; assay: Determination of MPC (mutant prevention concentration); assay type: cell-based, Staphylococcus aureus
Method: (§6) The drug-resistant tendency suppression potential of Z33 and tiamulin was determined as described with minor modifications. In the test, for each S. aureus strain, 4 mL of overnight cultures were inoculated into 100 mL of fresh BHI broth and then incubated for 4.5 h at 37 °C with shaking (210 rpm). Cultures were centrifuged at 5000 r/min for 10 min. The supernatant was discarded and resuspended in the 4 mL of saline to achieve a bacterial density of ~3 × 10^10 CFU/mL. In total, 100 μL of each culture was spread onto MHA containing various concentrations of Z33 and tiamulin. […] Plates were incubated at 37 °C for a total of 72 h and recorded every 24 h for the appearance of colonies. MPC was defined as the lowest concentration with no growth of colonies on the agar plate. MPC was carried out in triplicate.

S. aureus ATCC 29213 [9] = assay: as above; assay type: cell-based, Staphylococcus aureus
Method: as §6

MRSA ATCC 43300 [10] = assay: as above; assay type: cell-based, Staphylococcus aureus
Method: as §6

[11] = test system: S. aureus clinical strain AD3; assay: as above; assay type: cell-based, Staphylococcus aureus
Method: as §6

four S. aureus strains [12] = assay: MPC, summary over four strains; assay type: cell-based, Staphylococcus aureus
Method: as §6

[13] = test system: S. aureus clinical strain 144; assay: MIC and MBC determination (broth microdilution); assay type: cell-based; conditions: Staphylococcus aureus
Method: as §3, §4

S. aureus ATCC 29213 [14] = assay: MIC and MBC determination (broth microdilution); assay type: cell-based; conditions: Staphylococcus aureus
Method: as §3, §4

MRSA ATCC 43300 [15] = assay: MIC and MBC determination (broth microdilution); assay type: cell-based; conditions: Staphylococcus aureus
Method: as §3, §4

[16] = test system: S. aureus clinical strain AD3; assay: MIC and MBC determination (broth microdilution); assay type: cell-based; conditions: Staphylococcus aureus
Method: as §3, §4

T2 sequence (P05181 whole entry): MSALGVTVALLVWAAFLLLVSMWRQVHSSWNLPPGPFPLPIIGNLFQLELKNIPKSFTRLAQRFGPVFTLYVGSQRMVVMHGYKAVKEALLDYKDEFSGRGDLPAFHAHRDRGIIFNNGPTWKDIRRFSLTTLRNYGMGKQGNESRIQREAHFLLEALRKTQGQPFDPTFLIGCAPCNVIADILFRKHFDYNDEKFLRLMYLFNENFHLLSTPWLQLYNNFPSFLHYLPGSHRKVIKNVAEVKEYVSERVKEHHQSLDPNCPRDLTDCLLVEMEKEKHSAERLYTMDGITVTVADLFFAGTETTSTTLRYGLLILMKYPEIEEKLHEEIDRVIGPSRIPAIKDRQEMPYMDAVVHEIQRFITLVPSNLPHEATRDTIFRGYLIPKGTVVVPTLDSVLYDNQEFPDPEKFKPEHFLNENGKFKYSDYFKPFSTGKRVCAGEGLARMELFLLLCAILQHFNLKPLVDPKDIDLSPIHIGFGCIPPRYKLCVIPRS
T1 sequence (P08684 whole entry): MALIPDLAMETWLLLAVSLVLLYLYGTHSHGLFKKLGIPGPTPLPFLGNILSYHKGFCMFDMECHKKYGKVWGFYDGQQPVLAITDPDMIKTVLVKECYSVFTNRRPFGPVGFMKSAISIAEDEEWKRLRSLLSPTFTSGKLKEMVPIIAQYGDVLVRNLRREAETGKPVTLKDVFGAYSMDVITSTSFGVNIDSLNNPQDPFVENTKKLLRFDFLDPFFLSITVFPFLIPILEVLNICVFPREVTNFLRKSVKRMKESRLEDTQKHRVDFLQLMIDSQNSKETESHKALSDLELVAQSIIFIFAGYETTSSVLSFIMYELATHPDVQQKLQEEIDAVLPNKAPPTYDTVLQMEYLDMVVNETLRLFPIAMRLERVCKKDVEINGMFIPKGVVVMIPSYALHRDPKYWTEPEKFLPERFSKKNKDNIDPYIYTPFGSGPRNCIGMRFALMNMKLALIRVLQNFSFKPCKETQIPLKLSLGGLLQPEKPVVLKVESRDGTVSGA

C=C[C@]1(C)C[C@@H](OC(=O)CSc2ccccc2NC(=O)Cn2cc(CN3CCN(c4ccc([N+](=O)[O-])cc4)CC3)nn2)[C@]2(C)[C@H](C)CC[C@]3(CCC(=O)[C@H]32)[C@@H](C)[C@@H]1O [Compound Z33, 22-(2-(2-(4-((4-(4-nitrophenyl)piperazin-1-yl)methyl)-1H-1,2,3-triazol-1-yl)acetamido)phenyl)thioacety-l-yl-22-deoxypleuromutilin]
pIC50 (CYP3A4): 5.80 | concentration showing inhibition of bacterial growth (time-kill) (MRSA ATCC 43300 [1]): 1 µg/mL | fold difference of CYP2E1 IC50 relative to tiamulin (CYP2E1; Z33 vs tiamulin): at least 50 fold | pIC50 (CYP2E1; Figure 6, read-out: IC50 CYP2E1 (value in plot key)): 4.99 | pIC50 (CYP2E1; bound given in text, read-out: IC50 CYP2E1): < 5.00 | MRSA inoculum in the thigh muscle (MRSA ATCC 43300 [2]; 20 mg/kg intravenous, after treatment for 24 h): 7.065 ± 0.070 log10 CFU/g | reduction of bacterial load in the thigh muscle (MRSA ATCC 43300 [2]; 20 mg/kg intravenous, versus untreated group): approximately 1.358 log10 CFU/g | reduction in CFUs compared with the control group (MRSA ATCC 43300 [2]; 20 mg/kg, p < 0.0001): 1.358 log10 | IC50 at 24 h [3]: ≥ 20 µg/mL | cytotoxicity on RAW264.7 cells (RAW264.7 cells): No significant cytotoxicity | MIC (four S. aureus strains [4]): 0.125 to 0.25 µg/mL (≈ 0.154 to 0.307 µM) | PAE (MRSA ATCC 43300 [5]; 2 × MIC, exposure for 1 h): 2.24 h | PAE (MRSA ATCC 43300 [5]; 2 × MIC, exposure for 2 h): 2.18 h | PAE (MRSA ATCC 43300 [5]; 4 × MIC, exposure for 1 h): 3.89 h | PAE (MRSA ATCC 43300 [5]; 4 × MIC, exposure for 2 h): 3.93 h | fold decrease in susceptibility of the most resistant strain (four S. aureus strains [6]; after 13 passages): 32 fold | fold increase in MICs (four S. aureus strains [6]; after 13 passages): approximately 16 fold | passages after which resistance developed (≥ 4-fold MIC increase) (four S. aureus strains [6]; four S. aureus strains): 8 passages | fold increase in MIC (four S. aureus strains [6]; in 7 passages, sub-MIC (1/4 MIC) exposure): ≤ 4 fold | LD50 at 14 days [7]: > 5000 mg/kg | mortality (ICR mice): None of the mice died | MPC [8]: 0.5 µg/mL | MPC (S. aureus ATCC 29213 [9]): 0.5 µg/mL | MPC (MRSA ATCC 43300 [10]): 0.5 µg/mL | MPC [11]: 0.5 µg/mL | MPCs to four S. aureus strains (four S. aureus strains [12]): 0.5 µg/mL | MIC ([13]; first value of cell): 0.25 µg/mL (≈ 0.307 µM) | MBC ([13]; second value of cell): 0.25 µg/mL (≈ 0.307 µM) | MIC (S. aureus ATCC 29213 [14]; ATCC29213, first value of cell): 0.125 µg/mL (≈ 0.154 µM) | MBC (S. aureus ATCC 29213 [14]; ATCC29213, second value of cell): 0.125 µg/mL (≈ 0.154 µM) | MIC (MRSA ATCC 43300 [15]; first value of MIC/MBC cell): 0.125 µg/mL (≈ 0.154 µM) | MBC (MRSA ATCC 43300 [15]; second value of MIC/MBC cell): 0.25 µg/mL (≈ 0.307 µM) | MIC ([16]; first value of cell): 0.25 µg/mL (≈ 0.307 µM) | MBC ([16]; second value of cell): 0.25 µg/mL (≈ 0.307 µM)
